According to US11446287B2, “Compounds and methods for EP300 or CBP modulation and indications therefor” (Opna Immuno-Oncology SA, priority 2019, dated 2022):

biological target: T1, Recombinant human BRD4 containing dual bromodomains (BRD4-BD12 (1-477)) (Homo sapiens, UniProt O60885); assay: BRD4 Alphascreen binding assay
T1 construct: Recombinant human BRD4 containing dual bromodomains (BRD4-BD12 (1-477)); made in house; host or cells: E. coli BL21-CodonPlus (DE3), modified pET vector
In short: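 AlphaScreen proximity between Ni-chelate-bound BRD4-BD12 (1-477) and streptavidin-captured H4 K5/K8/K12/K16-acetyl peptide measured after 1 h room-temperature compound incubation and 30 min with 7.5 μg/ml beads. Buffer: 50 mM HEPES pH 7.5, 50 mM NaCl, 0.01% BSA, 0.01% Triton X-100; data plate-normalized and four-parameter fit for IC50.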

Compound | IC50 [µM]
CCOc1cc(C(=O)O)cc(OCC)c1-n1cc(-c2ccc(F)c(Cl)c2)c2ncc(-c3c(C)noc3C)cc21 [P-0209, 4-(3-(3-chloro-4-fluorophenyl)-6-(3,5-dimethylisoxazol-4-yl)-1H-pyrrolo[3,2-b]pyridin-1-yl)-3,5-diethoxybenzoic acid] | 1 to 8
CCOc1cc(C(=O)O)cc(OCC)c1-n1cc(CC2CCC2)c2ncc(-c3c(COC)noc3C)cc21 [P-0210, 4-(3-(cyclobutylmethyl)-6-(3-(methoxymethyl)-5-methylisoxazol-4-yl)-1H-pyrrolo[3,2-b]pyridin-1-yl)-3,5-diethoxybenzoic acid] | 8 to 1000
Cc1cnccc1-n1cc(-c2ccc(C(=O)O)cc2OC(F)(F)F)c2cc(-c3c(C)noc3C)cnc21 [P-0211, 4-(5-(3,5-dimethylisoxazol-4-yl)-1-(3-methylpyridin-4-yl)-1H-pyrrolo[2,3-b]pyridin-3-yl)-3-(trifluoromethoxy)benzoic acid] | 1 to 8
Cc1noc(C)c1-c1cnc2c(c1)c(-c1ccc(C(=O)O)cc1OC(F)(F)F)cn2C1CCS(=O)(=O)CC1 [P-0212, 4-(5-(3,5-dimethylisoxazol-4-yl)-1-(1,1-dioxidotetrahydro-2H-thiopyran-4-yl)-1H-pyrrolo[2,3-b]pyridin-3-yl)-3-(trifluoromethoxy)benzoic acid] | 8 to 1000
Cc1noc(C)c1-c1cnc2c(c1)c(-c1ccc(C(=O)O)cc1OC(C)C)cn2C(C1CC1)C1CC1 [P-0213, 4-(1-(dicyclopropylmethyl)-5-(3,5-dimethylisoxazol-4-yl)-1H-pyrrolo[2,3-b]pyridin-3-yl)-3-isopropoxybenzoic acid] | 8 to 1000
Cc1noc(C)c1-c1cnc2c(c1)c(-c1ccc(C(=O)O)cc1OCC(F)(F)F)cn2C(C1CC1)C1CC1 [P-0214, 4-(1-(dicyclopropylmethyl)-5-(3,5-dimethylisoxazol-4-yl)-1H-pyrrolo[2,3-b]pyridin-3-yl)-3-(2,2,2-trifluoroethoxy)benzoic acid] | 8 to 1000
Cc1noc(C)c1-c1cnc2c(c1)c(-c1ccc(C(=O)O)cc1OC(F)(F)F)cn2-c1ncccc1C#N [P-0215, 4-(1-(3-cyanopyridin-2-yl)-5-(3,5-dimethylisoxazol-4-yl)-1H-pyrrolo[2,3-b]pyridin-3-yl)-3-(trifluoromethoxy)benzoic acid] | 1 to 8
Cc1noc(C)c1-c1cnc2c(c1)c(-c1ccc(C(=O)O)cc1OC(F)(F)F)cn2-c1ncccc1C#CC1CC1 [P-0216, 4-(1-(3-(cyclopropylethynyl)pyridin-2-yl)-5-(3,5-dimethylisoxazol-4-yl)-1H-pyrrolo[2,3-b]pyridin-3-yl)-3-(trifluoromethoxy)benzoic acid] | 8 to 1000
CCOc1cc(C(=O)O)cc(OCC)c1-n1cc(-c2ccc(C#N)cc2F)c2ncc(-c3c(C)noc3C)cc21 [P-0217, 4-(3-(4-cyano-2-fluorophenyl)-6-(3,5-dimethylisoxazol-4-yl)-1H-pyrrolo[3,2-b]pyridin-1-yl)-3,5-diethoxybenzoic acid] | 1 to 8
CCOc1cc(C(=O)O)cc(OCC)c1-n1cc(-c2ccc(C(=O)NC3CC3)cc2)c2ncc(-c3c(C)noc3C)cc21 [P-0218, 4-(3-(4-(cyclopropylcarbamoyl)phenyl)-6-(3,5-dimethylisoxazol-4-yl)-1H-pyrrolo[3,2-b]pyridin-1-yl)-3,5-diethoxybenzoic acid] | 1 to 8
COC(=O)c1cc(OC)c(-n2cc(-c3ccccc3)c3ncc(-c4c(C)noc4C)cc32)c(OC)c1 [P-0219, methyl 4-(6-(3,5-dimethylisoxazol-4-yl)-3-phenyl-1H-pyrrolo[3,2-b]pyridin-1-yl)-3,5-dimethoxybenzoate] | 1 to 8
COc1cc(C(=O)O)cc(OC)c1-n1cc(-c2ccccc2)c2ncc(-c3c(C)noc3C)cc21 [P-0220, 4-(6-(3,5-dimethylisoxazol-4-yl)-3-phenyl-1H-pyrrolo[3,2-b]pyridin-1-yl)-3,5-dimethoxybenzoic acid] | 0.0001 to 1
COc1cccc(OC)c1-n1cc(-c2ccccc2)c2ncc(-c3c(C)noc3C)cc21 [P-0221, 4-(1-(2,6-dimethoxyphenyl)-3-phenyl-1H-pyrrolo[3,2-b]pyridin-6-yl)-3,5-dimethylisoxazole] | 8 to 1000
CCOc1cc(C(=O)O)cc(OCC)c1-n1cc(-c2ccnc(F)c2)c2ncc(-c3c(C)noc3C)cc21 [P-0222, 4-(6-(3,5-dimethylisoxazol-4-yl)-3-(2-fluoropyridin-4-yl)-1H-pyrrolo[3,2-b]pyridin-1-yl)-3,5-diethoxybenzoic acid] | 1 to 8
Cc1noc(C)c1-c1cnc2c(c1)c(-c1ccc(C(=O)O)cc1OC(F)(F)F)cn2-c1ccccc1F [P-0223, 4-(5-(3,5-dimethylisoxazol-4-yl)-1-(2-fluorophenyl)-1H-pyrrolo[2,3-b]pyridin-3-yl)-3-(trifluoromethoxy)benzoic acid] | 1 to 8
CCOc1cccc(Cl)c1-n1cc(-c2ccccc2)c2ncc(-c3c(C)noc3C)cc21 [P-0224, 4-(1-(2-chloro-6-ethoxyphenyl)-3-phenyl-1H-pyrrolo[3,2-b]pyridin-6-yl)-3,5-dimethylisoxazole] | 1 to 8
CCOc1ccc(C(=O)O)cc1-n1cc(-c2ccccc2)c2ncc(-c3c(C)noc3C)cc21 [P-0225, 3-(6-(3,5-dimethylisoxazol-4-yl)-3-phenyl-1H-pyrrolo[3,2-b]pyridin-1-yl)-4-ethoxybenzoic acid] | 1 to 8
Cc1noc(C)c1-c1cnc2c(c1)c(-c1ccc(C(=O)O)cc1OC(F)(F)F)cn2C1CCOCC1 [P-0226, 4-(5-(3,5-dimethylisoxazol-4-yl)-1-(tetrahydro-2H-pyran-4-yl)-1H-pyrrolo[2,3-b]pyridin-3-yl)-3-(trifluoromethoxy)benzoic acid] | 1 to 8
Cc1noc(C)c1-c1cnc2c(c1)c(-c1ccc(C(=O)O)cc1OC(F)(F)F)cn2C1CCC(F)(F)CC1 [P-0227, 4-(1-(4,4-difluorocyclohexyl)-5-(3,5-dimethylisoxazol-4-yl)-1H-pyrrolo[2,3-b]pyridin-3-yl)-3-(trifluoromethoxy)benzoic acid] | 1 to 8
Cc1noc(C)c1-c1cnc2c(c1)c(-c1ccc(C(=O)O)cc1OC(F)(F)F)c(C)n2-c1ccccn1 [P-0228, 4-(5-(3,5-dimethylisoxazol-4-yl)-2-methyl-1-(pyridin-2-yl)-1H-pyrrolo[2,3-b]pyridin-3-yl)-3-(trifluoromethoxy)benzoic acid] | 1 to 8
Cc1noc(C)c1-c1cnc2c(-c3ccc(F)cc3F)cn(-c3ccc(C(=O)O)cc3OC(F)(F)F)c2c1 [P-0229, 4-(3-(2,4-difluorophenyl)-6-(3,5-dimethylisoxazol-4-yl)-1H-pyrrolo[3,2-b]pyridin-1-yl)-3-(trifluoromethoxy)benzoic acid] | 1 to 8
Cc1noc(C)c1-c1cnc2c(c1)c(-c1c(F)cc(C(=O)O)cc1OC(F)(F)F)cn2C(C1CC1)C1CC1 [P-0230, 4-(1-(dicyclopropylmethyl)-5-(3,5-dimethylisoxazol-4-yl)-1H-pyrrolo[2,3-b]pyridin-3-yl)-3-fluoro-5-(trifluoromethoxy)benzoic acid] | 1 to 8
Cc1ccccc1-n1cc(-c2ccc(C(=O)O)cc2OC(F)(F)F)c2cc(-c3c(C)noc3C)cnc21 [P-0231, 4-(5-(3,5-dimethylisoxazol-4-yl)-1-(o-tolyl)-1H-pyrrolo[2,3-b]pyridin-3-yl)-3-(trifluoromethoxy)benzoic acid] | 8 to 1000
Cc1noc(C)c1-c1cnc2c(c1)c(-c1ccc(C(=O)O)cc1OC(F)(F)F)cn2-c1ccc(F)cc1F [P-0232, 4-(1-(2,4-difluorophenyl)-5-(3,5-dimethylisoxazol-4-yl)-1H-pyrrolo[2,3-b]pyridin-3-yl)-3-(trifluoromethoxy)benzoic acid] | 1 to 8
Cc1noc(C)c1-c1cnc2c(c1)c(-c1ccc(C(=O)O)cc1OC(F)(F)F)cn2-c1cc(F)ccc1F [P-0233, 4-(1-(2,5-difluorophenyl)-5-(3,5-dimethylisoxazol-4-yl)-1H-pyrrolo[2,3-b]pyridin-3-yl)-3-(trifluoromethoxy)benzoic acid] | 1 to 8
Cc1noc(C)c1-c1cnc2c(-c3ccc(C(=O)O)cc3F)c(C(F)(F)F)n([C@@H](C)c3ccccn3)c2c1 [P-0234, (S)-4-(6-(3,5-dimethylisoxazol-4-yl)-1-(1-(pyridin-2-yl)ethyl)-2-(trifluoromethyl)-1H-pyrrolo[3,2-b]pyridin-3-yl)-3-fluorobenzoic acid] | 1 to 8
Cc1cc(C(=O)O)ccc1-c1c(C(F)(F)F)n([C@@H](C)c2ccccn2)c2cc(-c3c(C)noc3C)cnc12 [P-0235, (S)-4-(6-(3,5-dimethylisoxazol-4-yl)-1-(1-(pyridin-2-yl)ethyl)-2-(trifluoromethyl)-1H-pyrrolo[3,2-b]pyridin-3-yl)-3-methylbenzoic acid] | 8 to 1000
COc1cc(C(=O)O)ccc1-c1c(C(F)(F)F)n([C@@H](C)c2ccccn2)c2cc(-c3c(C)noc3C)cnc12 [P-0236, (S)-4-(6-(3,5-dimethylisoxazol-4-yl)-1-(1-(pyridin-2-yl)ethyl)-2-(trifluoromethyl)-1H-pyrrolo[3,2-b]pyridin-3-yl)-3-methoxybenzoic acid] | 1 to 8
Cc1noc(C)c1-c1cnc2c(-c3cn(C)nc3C3CC3)c(C(F)(F)F)n([C@@H](C)c3ccccn3)c2c1 [P-0237, (S)-4-(3-(3-cyclopropyl-1-methyl-1H-pyrazol-4-yl)-1-(1-(pyridin-2-yl)ethyl)-2-(trifluoromethyl)-1H-pyrrolo[3,2-b]pyridin-6-yl)-3,5-dimethylisoxazole] | 1 to 8
Cc1noc(C)c1-c1cnc2c(-c3cc(C(=O)O)ccc3F)c(C(F)(F)F)n([C@@H](C)c3ccccn3)c2c1 [P-0238, (S)-3-(6-(3,5-dimethylisoxazol-4-yl)-1-(1-(pyridin-2-yl)ethyl)-2-(trifluoromethyl)-1H-pyrrolo[3,2-b]pyridin-3-yl)-4-fluorobenzoic acid] | 1 to 8
